Laboratory results from US20240117385A1, “ENZYMES OF LUCIFERIN BIOSYNTHESIS AND USE THEREOF” (LIGHT BIO, INC., priority 2018, published 2024).

What was measured:
[1] = test system: caffeylpyruvate hydrolase of Neonothopanus nambi; test: Determination of caffeylpyruvate hydrolase functionality; assay type: biochemical; settings: 25 μM caffeoyl pyruvate
Text: (§1) Polyhistidine (H is tag) coding sequence was operatively attach ed to 5′-ends of nucleic acids coding hispidin-synthase and caffeylpyruvate hydrolase of Neonothopanus nambi, obtained according to Example 9, and the obtained structures were cloned into pET-23 vector by means of restriction endonucleases NotI and SacI. The vectors were used for transformation of Escherichia coli cells of BL21-DE3-codon+ strain, performed by electroporation. The transformed cells were dispersed in Petri dishes with LB medium, comprising 1.5% of agar, 100 μg/ml of ampicillin, and incubated overnight at 37° C. […]
For determination of caffeylpyruvate hydrolase functionality 10 μl of isolated recombinant protein solution were put into a glass tube, comprising 100 μl of the buffer (0.2 M of Na-phosphate buffer, 0.5 M of Na2SO4, 0.1% dodecylmaltoside (DDM) pH 8.0, 0.5 μl of luciferase of Neonothopanus nambi, 1 mM of NADPH (Sigma-Aldrich, USA), 15 μl of hispidin hydroxylase 10 mM of ATP (ThermoFisher Scientific, USA), 1 mM of CoA (Sigma-Aldrich, USA), 1 mM of malonyl-CoA (Sigma-Aldrich, USA), 30 μl of purified recombinant hispidin synthase. The glass tube was placed into a luminometer GloMax 20/20 (Promega, USA). […] Maximum emission of the emitted luminescence was 520-535 nm.

[2] = test system: hispidin-synthase of Neonothopanus nambi; test: Determination of hispidin synthase functionality; assay type: biochemical; settings: 20 μM caffeic acid
Text: as §1
(§2) For determination of hispidin synthase functionality 30 μl of isolated recombinant protein solution were put into a glass tube, comprising 100 μl of the buffer (0.2 M of Na-phosphate buffer, 0.5 M of Na2SO4, 0.1% dodecylmaltoside (DDM) pH 8.0, all components—Sigma-Aldrich, USA), 0.5 μl of purified recombinant luciferase of Neonothopanus nambi, obtained according to Example 4, 1 mM of NADPH (Sigma-Aldrich, USA), 15 μl of purified recombinant hispidin hydroxylase of Neonothopanus nambi, obtained according to Example 4, 10 mM of ATP (ThermoFisher Scientific, USA), 1 mM of CoA (Sigma-Aldrich, USA), 1 mM of malonyl-CoA (Sigma-Aldrich, USA). […] Maximum emission of the emitted luminescence was 520-535 nm.

[3] = test system: Autonomously bioluminescent transgenic plants Nicotiana benthamiana; test: Effect of external adding caffeic acid on transgenic plant bioluminescence; assay type: in vivo; settings: 0.4-6.4 g/l, two hours of incubation
Method: Autonomously bioluminescent transgenic plants Nicotiana benthamiana, obtained according to Example 16, were transferred to soil and cultured within eight weeks. Then, plant stem was cut and placed in water for two hours, after that, bioluminescence intensity was measured by IVIS Spectrum In Vivo Imaging System (Perkin Elmer). Then, plants were transferred to one of five water solutions at caffeic acid concentration of 0.4 g/l, 0.8 g/l, 1.6 g/l, 3.2 g/l, or 6.4 g/l, and control plants were placed in water. After two more hours of incubation in the caffeic acid solution or in water bioluminescence intensity was measured again.

[4] = test system: PKS from Hydrangea macrophylla; test: Functionality of recombinant PKS; assay type: biochemical; settings: 20 μM caffeyl-CoA
Method: as §2, with “Nucleic acid coding PKS from Hydrangea macrophylla (SEQ ID NOs: 124, 125) was used for producing recombinant protein according to the technique described in Example 4. Presence” for “For determination”, “the expected recombinant product was confirmed by electrophoresis as bands of the expected length were available. Aliquots of the isolated recombinant protein were used for verifying” for “hispidin synthase”, “functionality of:” for “functionality”, “USA). The glass tube was placed into a luminometer GloMax 20/20 (Promega, USA).” for “USA).”

[5] = test system: Neonothopanus nambi luciferase; test: Bioluminescence reaction of biosynthetic 3-hydroxyhispidin; assay type: biochemical; settings: 3-hydroxyhispidin purified from fermenter medium by HPLC
Text: Expression cassette, comprising nucleic acid coding Neonothopanus nambi hispidin hydroxylase (SEQ ID NOs 1, 2) under control of J23100 promoter, was obtained synthetically and cloned into bacterial expression vector comprising spectinomycin resistance gene. The obtained vector was transformed into E. coli cells expressing Neonothopanus nambi hispidin-synthase, Zeocin resistance gene and NpgA gene, obtained according to Example 12. The obtained bacteria were used for producing 3-hydroxyhispidin by fermentation according to the protocol described in Example 12, however with adding of spectinomycin at concentration of […] in all media used for cultivation. After 48 hours of cultivation the 3-hydroxyhispidin concentration in the medium was 2.3 g/l.

[6] = test system: hispidin hydroxylase and luciferase fusion protein; test: Bioluminescence of HEK293T cells expressing hispidin hydroxylase and luciferase fusion protein; assay type: cell-based, Neonothopanus nambi; settings: 24 hours after transfection, 1 million of cells in 0.5 ml PBS; hispidin 10 μg per 1 million of cells
Text: Humanized DNA sequences coding hispidin-hydroxylase and luciferase of Neonothopanus nambi, obtained according to Example 2, were operatively cross-linked to each other by flexible short peptide linker with amino acid sequence GGSGGSGGS (SEQ ID NOs:115). Nucleotide and amino acid sequences of the obtained fused protein are shown in SEQ ID NO 101 and 102. Nucleic acid coding fused protein was cloned into pEGFP-N1 vector (Clontech, USA) instead of EGFP gene under Cytomegaloviral promoter control. The obtained structure was transfected into HEK293T cells. Analogous vectors, comprising individual genes of hispidin hydroxylase and luciferase, were also co-transfected. Transfection was performed by transfection agent FuGENE HD (Promega, USA) according to the manufacturer's protocol. 24 hours after transfection 1 million of cells were resuspended in 0.5 ml of PBS, and luminescence without adding hispidin and with addition of hispidin (10 μg per 1 million of cells) was recorded by luminometer.

[7] = test system: Arabidopsis thaliana; test: Caffeylpyruvate hydrolase effect on luminescence of autonomously bioluminescent plants; assay type: in vivo; settings: on average
Text: For the purpose of study of caffeylpyruvate hydrolase effect on luminescence of autonomously bioluminescent organisms there was used a binary vector for agrobacterium transformation comprising coding sequences of Neonothopanus nambi luciferase, Neonothopanus nambi hispidin hydroxylase, Neonothopanus nambi hispidin synthase, Neonothopanus nambi caffeylpyruvate hydrolase and kanamycin resistance gene, and each gene is under control of 35S promoter from cauliflower mosaic virus, obtained according to Example 16, and control vector characterized in that caffeylpyruvate hydrolase sequence was removed from it. The vectors were used for transformation of Arabidopsis thaliana in the same conditions according to the protocol described in Example 16. Bioluminescence was visualized by means of IVIS Spectrum In Vivo Imaging System (Perkin Elmer). […] The data provided indicate that expression of caffeylpyruvate hydrolase enables to increase bioluminescent cascade efficiency, that results in increasing the intensity of luminescence emitted by plants.

In the case of `O=C(/C=C/c1ccc(O)c(O)c1)/C=C(/O)C(=O)O` [caffeoyl pyruvate, (2E,5E)-6-(3,4-dihydroxyphenyl)-2-hydroxy-4-oxohexa-2,5-diene acid], the “Bioluminescence of the reaction mixture” value [1] is reported as “Bioluminescence of the reaction mixture was detected”.

`O=C(O)/C=C/c1ccc(O)c(O)c1` [caffeic acid] was tested, and the “bioluminescence of reaction mixture” value [2] was “demonstrated bioluminescence” and the “change of bioluminescence intensity vs before placing in caffeic acid solution” value [3] was “increased”.

With `CC(C)(COP(=O)(O)OP(=O)(O)OC[C@H]1O[C@@H](n2cnc3c(N)ncnc32)[C@H](O)[C@@H]1OP(=O)(O)O)[C@@H](O)C(=O)NCCC(=O)NCCSC(=O)/C=C/c1ccc(O)c(O)c1` [caffeyl-CoA] the “bioluminescence of reaction mixtures” value [4] was “demonstrated bioluminescence”.

With `O=c1oc(/C=C/c2ccc(O)c(O)c2)cc(O)c1O` [3-hydroxy hispidin, (E)-6-(3,4-dihydroxystyryl)-3,4-dihydroxy-2H-pyran-2-one] the “activity in bioluminescence reaction” value [5] was “active in bioluminescence reaction” and the “cell luminescence on addition” value [6] was “caused bioluminescent signal”.

B1: Neonothopanus nambi caffeylpyruvate hydrolase: enzyme converting caffeylpyruvate to caffeic acid, expressed in transgenic plants (protein, listed as Neonothopanus nambi)
chain: MAPISSTWSRLIRFVAIETSLVHIGEPIDATMDVGLARREGKTIQAYEIIGSGSALDLSAQVSKNVLTVRELLMPLSREEIKTVRCLGLNYPVHATEANVAVPKFPNLFYKPVTSLIGPDGLITIPSVVQPPKEHQSDYEAELVIVIGKAAKNVSEDEALDYVLGYTAANDISFRKHQLAVSQWSFSKGFGSLLLTIRMAQTHSGNINRFSRDQIFNVKKTISFLSQGTTLEPGSIILTGTPDGVGFVRNPPLYLKDGDEVMTWIGSGIGTLANTVQEEKTCFASGGHE
B1 was tested, and the “brightness of bioluminescence vs plants expressing only luciferase, hispidin hydroxylase and hispidin synthase” value [7] was 8.3 times.
